Data taken from ChEMBL document CHEMBL4340555, “Synthesis and biological evaluation of 2-chloro-3-[(thiazol-2-yl)amino]-1,4-naphthoquinones” (Bioorg Med Chem Lett, 2019).
pIC50: −log10 of the molar value. Values after ≈ are worked out from the molar mass of the structure shown. Active and inactive are the calls of the source. No cut-off for these calls is given here.

Legend:
[1] = system: Mycobacterium tuberculosis; experiment: Antitubercular activity against Mycobacterium tuberculosis H37Rv assessed as reduction in bacterial growth after 14 days by green fluorescent protein microplate assay; format: functional; settings: 336 h
[2] = system: Mycobacterium tuberculosis; experiment: Antitubercular activity against Mycobacterium tuberculosis H37Rv assessed as reduction in bacterial growth after 7 days by green fluorescent protein microplate assay; format: functional; settings: 168 h
Plasmodium falciparum [3] = experiment: Antimalarial activity against Plasmodium falciparum 3D7 assessed as reduction in parasite viability at 20 uM by parasite lactate dehydrogenase released based colorimetric assay relative to control; format: functional
Pseudomonas aeruginosa [4] = experiment: Antimicrobial activity against Pseudomonas aeruginosa assessed as zone of inhibition at 1 uM/disk after 24 hrs by disk diffusion method; format: functional
[5] = Lipophilicity, log P of the compound; format: physicochemical; settings: octanol/water
SH-SY5Y = experiment: Cytotoxicity against human SH-SY5Y assessed as reduction in cell viability after 48 hrs by xCELLigence RTCA SP analysis; format: functional, cell-based
Pseudomonas aeruginosa [6] = experiment: Antimicrobial activity against Pseudomonas aeruginosa assessed as zone of inhibition at 1000 uM/disk after 24 hrs by disk diffusion method; format: functional; settings: for zone of inhibition at 1000 µM: read-out: DIZ
Pseudomonas aeruginosa [7] = experiment: Antimicrobial activity against Pseudomonas aeruginosa assessed as zone of inhibition at 2000 uM/disk after 24 hrs by disk diffusion method; format: functional; settings: for zone of inhibition at 2000 µM: read-out: DIZ
Pseudomonas aeruginosa [8] = experiment: Antimicrobial activity against Pseudomonas aeruginosa assessed as zone of inhibition at 10 uM/disk after 24 hrs by disk diffusion method; format: functional; settings: for zone of inhibition at 10 µM: read-out: DIZ
Pseudomonas aeruginosa [9] = experiment: Antimicrobial activity against Pseudomonas aeruginosa assessed as zone of inhibition after 24 hrs by disk diffusion method; format: functional, organism-based
HeLa = experiment: Cytotoxicity against human HeLa cells assessed as cell viability at 20 uM after 24 hrs by resazurin based fluorescence assay relative to control; format: functional; settings: read-out: Activity
Pseudomonas aeruginosa [10] = experiment: Antimicrobial activity against Pseudomonas aeruginosa assessed as zone of inhibition at 100 uM/disk after 24 hrs by disk diffusion method; format: functional; settings: for zone of inhibition at 100 µM: read-out: DIZ
Plasmodium falciparum [11] = experiment: Antimalarial activity against Plasmodium falciparum 3D7 assessed as reduction in parasite viability by parasite lactate dehydrogenase release based colorimetric assay; format: functional, organism-based
Pseudomonas aeruginosa [12] = experiment: Antimicrobial activity against Pseudomonas aeruginosa assessed as zone of inhibition at 25 ug/disk after 24 hrs by disk diffusion method; format: functional; settings: read-out: DIZ
Pseudomonas aeruginosa [13] = experiment: Antimicrobial activity against Pseudomonas aeruginosa assessed as zone of inhibition at 10 ug/disk after 24 hrs by disk diffusion method; format: functional; settings: read-out: DIZ
Plasmodium falciparum [14] = experiment: Stimulation of parasite proliferation of Plasmodium falciparum 3D7 assessed as increase in parasite viability at 20 uM by parasite lactate dehydrogenase released based colorimetric assay relative to control; format: organism-based

SMILES | MIC99 [1] [µM] | MIC90 [2] [µM] | inhibition at 20 µM (Plasmodium falciparum [3]) [%] | diameter of the inhibition zone (DIZ) (Pseudomonas aeruginosa [4]) | logP [5] | Activity (SH-SY5Y) | pIC50 (SH-SY5Y) | zone of inhibition at 1000 µM (Pseudomonas aeruginosa [6]) [mm] | zone of inhibition at 2000 µM (Pseudomonas aeruginosa [7]) [mm] | diameter of the inhibition zone (DIZ) (Pseudomonas aeruginosa [8]) | Activity (Pseudomonas aeruginosa [9]) | viability at 20 µM (HeLa) [%] | zone of inhibition at 100 µM (Pseudomonas aeruginosa [10]) [mm] | diameter of the inhibition zone (DIZ) (Pseudomonas aeruginosa [6]) | diameter of the inhibition zone (DIZ) (Pseudomonas aeruginosa [7]) | diameter of the inhibition zone (DIZ) (Pseudomonas aeruginosa [10]) | other results
CO[C@H]1/C=C/O[C@@]2(C)Oc3c(C)c(O)c4c(O)c(c(/C=N/N5CCN(C)CC5)c(O)c4c3C2=O)NC(=O)/C(C)=C\C=C\[C@H](C)[C@H](O)[C@@H](C)[C@@H](O)[C@@H](C)[C@H](OC(C)=O)[C@@H]1C [RIFAMPIN] | 0.00167 (≈ 0.00137 µg/mL) | 0.0015 (≈ 0.00123 µg/mL) |  |  |  |  |  |  |  |  |  |  |  |  |  |  | 
O=C1C(Cl)=C(Nc2nc(-c3ccc(Cl)cc3)cs2)C(=O)c2ccccc21 | > 20 | > 20 | 30 | inactive | < 5 | Dose-dependent effect | 5.57 | 9.7 | 12 | inactive | Dose-dependent effect | 80 | 7.6 |  |  |  | 
CCOC(=O)c1csc(NC2=C(Cl)C(=O)c3ccccc3C2=O)n1 | > 20 | 19.5 (≈ 7.07 µg/mL) | 40 | inactive | < 5 | Dose-dependent effect | 4.51 |  |  | inactive |  | 82 |  | inactive | inactive | inactive | 
O=C1C(Cl)=C(Nc2nc(-c3ccc(F)cc3)cs2)C(=O)c2ccccc21 | 10.4 (≈ 4 µg/mL) | 9.37 (≈ 3.61 µg/mL) | 80 to 90 |  | < 5 | Dose-dependent effect | 5.82 | 15 | 19.5 |  | Dose-dependent effect | 75 | 11 |  |  |  | zone of inhibition at 1 µM (Pseudomonas aeruginosa [4]; read-out: DIZ): 5 mm; pIC50 (Plasmodium falciparum [11]): 4.35; zone of inhibition at 10 µM (Pseudomonas aeruginosa [8]): 8 mm
CCN(CC)CCCC(C)Nc1ccnc2cc(Cl)ccc12 (centres undefined) [CHLOROQUINE] |  |  |  | inactive |  |  |  |  |  | inactive |  | 3.6 |  | inactive | inactive | inactive | 
O=C1C(Cl)=C(Nc2nc(-c3ccc(Br)cc3)cs2)C(=O)c2ccccc21 | > 20 | > 20 | 80 to 90 | inactive | < 5 | Dose-dependent effect |  |  |  | inactive |  | 55 |  | inactive | inactive | inactive | pIC50 (Plasmodium falciparum [11]): 4.30
O=C1C(Cl)=C(Nc2nc(-c3ccc([N+](=O)[O-])cc3)cs2)C(=O)c2ccccc21 | > 20 | > 20 | 80 to 90 | inactive | < 5 | Dose-dependent effect |  | 11 | 14.1 | inactive | Dose-dependent effect | 80 | 7.2 |  |  |  | pIC50 (Plasmodium falciparum [11]): 4.69
CC1(C)S[C@@H]2[C@H](NC(=O)[C@H](N)c3ccccc3)C(=O)N2[C@H]1C(=O)O [AMPICILLIN] |  |  |  |  |  |  |  |  |  |  |  |  |  |  |  |  | zone of inhibition at 25 µg/disc (Pseudomonas aeruginosa [12]): 24.7 mm
O=C1C(Cl)=C(Nc2nc(-c3ccccc3)cs2)C(=O)c2ccccc21 | 10.2 (≈ 3.74 µg/mL) | 9.19 (≈ 3.37 µg/mL) | 10 | inactive | < 5 | Dose-dependent effect | 5.74 | 11.4 | 13.2 |  | Dose-dependent effect | 80 | 9.1 |  |  |  | zone of inhibition at 10 µM (Pseudomonas aeruginosa [8]): 5.3 mm
CN[C@@H]1[C@H](O[C@H]2[C@H](O[C@H]3[C@H](O)[C@@H](O)[C@H](N=C(N)N)[C@@H](O)[C@@H]3N=C(N)N)O[C@@H](C)[C@]2(O)C=O)O[C@@H](CO)[C@H](O)[C@H]1O [STREPTOMYCIN] |  |  |  |  |  |  |  |  |  |  |  |  |  |  |  |  | zone of inhibition at 10 µg/disc (Pseudomonas aeruginosa [13]): 20 mm
O=C(O)c1csc(NC2=C(Cl)C(=O)c3ccccc3C2=O)n1 | > 20 | > 20 |  | inactive | < 5 | Dose-dependent effect | < 4.00 |  |  | inactive |  | 75 |  | inactive | inactive | inactive | Activity (Plasmodium falciparum [14]): 15%
